Type in all cases: cell-based
In series [1] the test system is HepG2. The series can be described thus: Cytotoxicity against human HepG2 cells assessed as cell viability at 10 uM after 24 hrs by MTS assay. As to conditions: hepg2, 24 h. (Tetrazolium dyes change colour on reduction, which living cells bring about.)
The target in series [2] is T1, Peroxisome proliferator-activated receptor gamma (Homo sapiens) (UniProt P37231).
T1 sequence (whole entry): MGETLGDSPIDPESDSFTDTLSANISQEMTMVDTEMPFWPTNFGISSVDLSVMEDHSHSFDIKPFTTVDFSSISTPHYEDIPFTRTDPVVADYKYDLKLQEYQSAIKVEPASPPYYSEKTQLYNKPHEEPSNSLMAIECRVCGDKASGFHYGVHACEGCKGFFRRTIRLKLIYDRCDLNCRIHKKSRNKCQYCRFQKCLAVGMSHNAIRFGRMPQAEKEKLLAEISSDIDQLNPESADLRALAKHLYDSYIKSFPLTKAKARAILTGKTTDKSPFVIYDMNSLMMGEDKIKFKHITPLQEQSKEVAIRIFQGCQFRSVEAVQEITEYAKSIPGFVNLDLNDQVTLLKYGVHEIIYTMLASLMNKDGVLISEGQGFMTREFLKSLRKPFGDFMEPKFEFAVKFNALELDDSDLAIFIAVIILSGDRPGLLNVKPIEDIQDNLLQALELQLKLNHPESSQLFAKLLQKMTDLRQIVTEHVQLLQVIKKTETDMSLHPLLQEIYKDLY
The series can be described thus: Transactivation of Gal4-fused PPARgamma ligand binding domain expressed in human HepG2 cells co-transfected with pFR-Luc and pRL-CMV at 0.1 to 10 uM after 20 hrs by dual-luciferase reporter gene assay. In general terms: A reporter such as luciferase makes a cellular process visible.

Series [3] has as its target T2, Peroxisome proliferator-activated receptor delta (Homo sapiens) (UniProt Q03181).
T2 sequence (whole entry): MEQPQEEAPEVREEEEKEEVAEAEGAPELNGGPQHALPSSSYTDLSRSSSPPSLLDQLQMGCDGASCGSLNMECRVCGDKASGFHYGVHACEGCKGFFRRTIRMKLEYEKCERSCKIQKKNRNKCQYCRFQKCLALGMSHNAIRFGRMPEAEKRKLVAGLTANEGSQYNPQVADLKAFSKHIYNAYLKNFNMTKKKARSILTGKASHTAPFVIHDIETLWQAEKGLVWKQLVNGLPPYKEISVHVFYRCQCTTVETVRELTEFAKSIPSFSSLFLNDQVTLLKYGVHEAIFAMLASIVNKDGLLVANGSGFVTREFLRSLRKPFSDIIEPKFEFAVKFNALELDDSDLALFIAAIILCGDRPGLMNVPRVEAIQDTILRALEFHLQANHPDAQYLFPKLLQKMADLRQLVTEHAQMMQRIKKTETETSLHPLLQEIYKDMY
Put plainly: Transactivation of Gal4-fused PPARbeta/delta ligand binding domain expressed in human HepG2 cells co-transfected with pFRLuc and pRL-CMV at 0.1 to 10 uM after 20 hrs by dual-luciferase reporter gene assay.

Series [4] concerns the target T3, Peroxisome proliferator-activated receptor alpha (Homo sapiens) (UniProt Q07869).
T3 sequence (whole entry): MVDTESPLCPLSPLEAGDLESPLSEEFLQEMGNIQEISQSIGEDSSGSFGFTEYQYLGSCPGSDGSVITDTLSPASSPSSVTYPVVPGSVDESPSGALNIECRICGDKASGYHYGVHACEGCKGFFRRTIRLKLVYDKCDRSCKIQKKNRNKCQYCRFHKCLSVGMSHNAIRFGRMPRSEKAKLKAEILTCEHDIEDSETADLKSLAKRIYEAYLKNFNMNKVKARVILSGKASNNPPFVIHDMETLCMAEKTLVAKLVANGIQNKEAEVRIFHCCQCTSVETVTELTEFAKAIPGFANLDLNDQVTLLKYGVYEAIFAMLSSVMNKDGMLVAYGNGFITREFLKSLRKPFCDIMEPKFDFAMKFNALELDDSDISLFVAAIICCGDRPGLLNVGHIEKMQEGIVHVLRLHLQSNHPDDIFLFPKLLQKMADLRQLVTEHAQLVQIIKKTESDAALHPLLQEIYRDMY
The series can be described thus: Transactivation of Gal4-fused PPARalpha ligand binding domain expressed in human HepG2 cells co-transfected with pFR-Luc and pRL-CMV at 0.1 to 10 uM after 20 hrs by dual-luciferase reporter gene assay.

The nature of series [5]: Inhibition of NF-kappaB activation expressed in TNFalpha-stimulated human HepG2 cells co-transfected with […] plasmid pretreated for 1 hr before TNFalpha challenge measured after 24 hrs by luciferase reporter gene assay.
For series [6], the system named is HepG2. Put plainly: Inhibition of NFkappaB activation expressed in human HepG2 cells assessed as reduction in TNF-alpha-induced iNOS mRNA expression preincubated 1 hr before TNFalpha challenge measured after 6 hrs by RT-PCR analysis.
The test system of series [7] is HepG2. The series can be described thus: Inhibition of NF-kappaB activation expressed in human HepG2 cells assessed as reduction in TNFalpha-induced COX2 mRNA expression preincubated 1 hr before TNFalpha challenge measured after 6 hrs by RT-PCR analysis.

SMILES strings stand for the structures. Active and inactive are the calls of the source. The rule behind the calls is not given here.

By IC50 is commonly meant the midpoint of a concentration-inhibition curve.

Take `CC1(C)CC[C@]2(C(=O)O[C@@H]3O[C@H](CO)[C@@H](O)[C@H](O)[C@H]3O)CC[C@]3(C)C(=CC[C@@H]4[C@@]5(C)CC[C@H](O[C@@H]6O[C@H](C(=O)O)[C@@H](O[C@H]7O[C@@H](CO)[C@H](O)[C@H]7O)[C@H](O[C@@H]7O[C@H](CO)[C@@H](O)[C@H](O)[C@H]7O)[C@H]6O)C(C)(C)[C@@H]5CC[C@]43C)[C@@H]2C1` [STIPULEANOSIDE R2]: the Activity entry in the series with HepG2 [1] is listed as “Non-toxic”.
`COC(=O)[C@H]1O[C@@H](O[C@H]2CC[C@]3(C)[C@H]4CC=C5[C@@H]6CC(C)(C)CC[C@]6(C(=O)O[C@@H]6O[C@H](CO)[C@@H](O)[C@H](O)[C@H]6O)CC[C@@]5(C)[C@]4(C)CC[C@H]3C2(C)C)[C@H](O[C@@H]2OC[C@H](O)[C@H](O)[C@H]2O)[C@@H](O[C@@H]2O[C@H](CO)[C@@H](O)[C@H](O)[C@H]2O)[C@@H]1O`: the result in series [2] was Active. Further, the outcome in series [3] and in series [4] was inactive. In the series on HepG2 [1], the Activity entry is recorded as “Non-toxic”.
Take `O=C(O)c1cc(/N=N/c2ccc(S(=O)(=O)Nc3ccccn3)cc2)ccc1O` [SULFASALAZINE]: the half-inhibitory concentration (IC50) in series [5] turned out to be 0.9 µM.
With `CC1(C)CC[C@]2(C(=O)O[C@@H]3O[C@H](CO)[C@@H](O)[C@H](O)[C@H]3O)CC[C@]3(C)C(=CC[C@@H]4[C@@]5(C)CC[C@H](O[C@@H]6O[C@H](C(=O)O)[C@@H](O)[C@H](O[C@@H]7O[C@H](CO)[C@H](O)[C@H](O)[C@H]7O)[C@H]6O[C@@H]6O[C@H](CO)[C@H](O)[C@H](O)[C@H]6O)C(C)(C)[C@@H]5CC[C@]43C)[C@@H]2C1` [ELATOSIDE D], the result in series [2] was Active. In addition, the outcome in series [3] and in series [4] was inactive. Besides, the Activity result with HepG2 [1] is “Non-toxic”.
Take `CC1(C)CC[C@]2(C(=O)O[C@@H]3O[C@H](CO)[C@@H](O)[C@H](O)[C@H]3O)CC[C@]3(C)C(=CC[C@@H]4[C@@]5(C)CC[C@H](O[C@@H]6O[C@H](C(=O)O)[C@@H](O)[C@H](O[C@@H]7O[C@H](CO)[C@@H](O)[C@H](O)[C@H]7O)[C@H]6O[C@@H]6OC[C@H](O)[C@H](O)[C@H]6O)C(C)(C)[C@@H]5CC[C@]43C)[C@@H]2C1`: the outcome in series [2] was Active. Also, the result in series [3] and in series [4] was inactive. Further, the IC50 in series [5] amounted to 9.5 µM. Besides, the inhibition entry with HepG2 [6] and in the series with HepG2 [7] was “Dose-dependent effect” in each case. In the series with HepG2 [1], the Activity result was “Non-toxic”.
As to `CC1(C)CC[C@]2(C(=O)O[C@@H]3O[C@H](CO[C@@H]4O[C@H](CO)[C@@H](O)[C@H](O)[C@H]4O)[C@@H](O)[C@H](O)[C@H]3O)CC[C@]3(C)C(=CC[C@@H]4[C@@]5(C)CC[C@H](O[C@@H]6O[C@H](C(=O)O)[C@@H](O[C@@H]7O[C@@H](CO)[C@H](O)[C@H]7O)[C@H](O)[C@H]6O[C@@H]6O[C@H](CO[C@@H]7O[C@H](CO)[C@@H](O)[C@H](O)[C@H]7O)[C@@H](O)[C@H](O)[C@H]6O)C(C)(C)[C@@H]5CC[C@]43C)[C@@H]2C1` [ELATOSIDE L], the IC50 in series [5] is 4.1 µM. Also, the inhibition result in the series with HepG2 [6] and in the series with HepG2 [7] was “Dose-dependent effect” throughout. Further, in the series on HepG2 [1], the Activity result is “Non-toxic”.
For the compound `CC1(C)CC[C@]2(C(=O)O[C@@H]3O[C@H](CO)[C@@H](O)[C@H](O)[C@H]3O)CC[C@]3(C)C(=CC[C@@H]4[C@@]5(C)CC[C@H](O[C@@H]6O[C@H](C(=O)O)[C@@H](O[C@@H]7O[C@@H](CO)[C@H](O)[C@H]7O)[C@H](O)[C@H]6O[C@@H]6O[C@H](CO)[C@@H](O)[C@H](O)[C@H]6O)C(C)(C)[C@@H]5CC[C@]43C)[C@@H]2C1` [TARASAPONIN IV], the Activity entry in the series on HepG2 [1] was “Non-toxic”.

Values taken from ChEMBL document CHEMBL1833865, “Oleanane-type triterpene saponins from the bark of Aralia elata and their NF-κB inhibition and PPAR activation signal pathway” (Bioorg Med Chem Lett, 2011).
